Laboratory results from the supplement of paper PMC10307832.

Legend:
Assay in all cases: relative viability (nuclei count vs DMSO), 5 days (fraction); higher = more cells survive
201T = test system: 201T
Method in brief: (§1)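 Lung cancer cell lines were seeded in 1536-well plates and dosed by pin tool the next day, with either a single drug or a fixed anchor-drug dose combined with five library-drug doses (not always all listed) spaced in √10 steps. Five days later, one step fixed the cells and stained their nuclei (final 0.05% Triton X-100, 1% formaldehyde, 1 ug/ml Hoechst), and nuclei were counted on 4× images. Relative viability is the nuclei count in treated wells divided by the count in vehicle wells, and each value is the median of duplicate plates.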

ABC-1 = test system: ABC-1
Method in brief: as §1

BEN = test system: BEN
Method in brief: as §1

CAL-12T = test system: CAL-12T
Method in brief: as §1

COR-L 105 = test system: COR-L 105
Method in brief: as §1

EKVX = test system: EKVX
Method in brief: as §1

HARA = test system: HARA
Method in brief: as §1

HCC-366 = test system: HCC-366
Method in brief: as §1

LK-2 = test system: LK-2
Method in brief: as §1

LOU-NH91 = test system: LOU-NH91
Method in brief: as §1

NCI-H1437 = test system: NCI-H1437
Method in brief: as §1

NCI-H1650 = test system: NCI-H1650
Method in brief: as §1

NCI-H1666 = test system: NCI-H1666
Method in brief: as §1

NCI-H2009 = test system: NCI-H2009
Method in brief: as §1

NCI-H2170 = test system: NCI-H2170
Method in brief: as §1

NCI-H3122 = test system: NCI-H3122
Method in brief: as §1

NCI-H441 = test system: NCI-H441
Method in brief: as §1

NCI-H460 = test system: NCI-H460
Method in brief: as §1

NCI-H661 = test system: NCI-H661
Method in brief: as §1

NCI-H727 = test system: NCI-H727
Method in brief: as §1

PC-14 = test system: PC-14
Method in brief: as §1

**Q.** For `Nc1ccn([C@@H]2O[C@H](CO)[C@@H](O)[C@@H]2O)c(=O)n1` [Cytarabine] + C[C@@H](Oc1cc(-c2cnn(C3CCNCC3)c2)cnc1N)c1c(Cl)ccc(F)c1Cl [Crizotinib] (partner 1 µM), which relative viability (201T; first compound 0.005 µM) is on record?
**A.** 1.04

**Q.** What about the relative viability (201T; first compound 0.01581 µM) of the same compound?
**A.** 0.999

**Q.** And the relative viability (201T; first compound 0.05 µM)?
**A.** 1.01

**Q.** And the relative viability (201T; first compound 0.1581 µM)?
**A.** 0.97

**Q.** What about the relative viability (201T; first compound 0.5 µM) of the same compound?
**A.** 1

**Q.** What about the relative viability (ABC-1; first compound 0.005 µM) of the same compound?
**A.** 0.871

**Q.** What about the relative viability (ABC-1; first compound 0.01581 µM) of the same compound?
**A.** 0.821

**Q.** What about the relative viability (ABC-1; first compound 0.05 µM) of the same compound?
**A.** 0.925

**Q.** And the relative viability (ABC-1; first compound 0.1581 µM)?
**A.** 0.717

**Q.** And the relative viability (ABC-1; first compound 0.5 µM)?
**A.** 0.462

**Q.** And the relative viability (BEN; first compound 0.005 µM)?
**A.** 0.605

**Q.** What about the relative viability (BEN; first compound 0.01581 µM) of the same compound?
**A.** 0.66

**Q.** And the relative viability (BEN; first compound 0.05 µM)?
**A.** 0.449

**Q.** And the relative viability (BEN; first compound 0.1581 µM)?
**A.** 0.311

**Q.** What about the relative viability (BEN; first compound 0.5 µM) of the same compound?
**A.** 0.292

**Q.** What about the relative viability (CAL-12T; first compound 0.005 µM) of the same compound?
**A.** 0.413

**Q.** And the relative viability (CAL-12T; first compound 0.01581 µM)?
**A.** 0.753

**Q.** What about the relative viability (CAL-12T; first compound 0.05 µM) of the same compound?
**A.** 0.703

**Q.** What about the relative viability (CAL-12T; first compound 0.1581 µM) of the same compound?
**A.** 0.511

**Q.** What about the relative viability (CAL-12T; first compound 0.5 µM) of the same compound?
**A.** 0.153

**Q.** And the relative viability (COR-L 105; first compound 0.005 µM)?
**A.** 0.657

**Q.** And the relative viability (COR-L 105; first compound 0.01581 µM)?
**A.** 0.725

**Q.** And the relative viability (COR-L 105; first compound 0.05 µM)?
**A.** 0.511

**Q.** What about the relative viability (COR-L 105; first compound 0.1581 µM) of the same compound?
**A.** 0.393

**Q.** And the relative viability (COR-L 105; first compound 0.5 µM)?
**A.** 0.256

**Q.** What about the relative viability (EKVX; first compound 0.005 µM) of the same compound?
**A.** 0.802

**Q.** And the relative viability (EKVX; first compound 0.01581 µM)?
**A.** 1.07

**Q.** And the relative viability (EKVX; first compound 0.05 µM)?
**A.** 0.827

**Q.** What about the relative viability (EKVX; first compound 0.1581 µM) of the same compound?
**A.** 0.368

**Q.** What about the relative viability (EKVX; first compound 0.5 µM) of the same compound?
**A.** 0.287

**Q.** And the relative viability (HARA; first compound 0.005 µM)?
**A.** 1.01

**Q.** What about the relative viability (HARA; first compound 0.01581 µM) of the same compound?
**A.** 0.682

**Q.** What about the relative viability (HARA; first compound 0.05 µM) of the same compound?
**A.** 0.333

**Q.** What about the relative viability (HARA; first compound 0.1581 µM) of the same compound?
**A.** 0.223

**Q.** What about the relative viability (HARA; first compound 0.5 µM) of the same compound?
**A.** 0.169

**Q.** And the relative viability (HCC-366; first compound 0.005 µM)?
**A.** 0.405

**Q.** And the relative viability (HCC-366; first compound 0.01581 µM)?
**A.** 0.43

**Q.** What about the relative viability (HCC-366; first compound 0.05 µM) of the same compound?
**A.** 0.216

**Q.** What about the relative viability (HCC-366; first compound 0.1581 µM) of the same compound?
**A.** 0.026

**Q.** And the relative viability (HCC-366; first compound 0.5 µM)?
**A.** 0.0284

**Q.** And the relative viability (LK-2; first compound 0.005 µM)?
**A.** 0.262

**Q.** And the relative viability (LK-2; first compound 0.01581 µM)?
**A.** 0.305

**Q.** What about the relative viability (LK-2; first compound 0.05 µM) of the same compound?
**A.** 0.208

**Q.** What about the relative viability (LK-2; first compound 0.1581 µM) of the same compound?
**A.** 0.196

**Q.** What about the relative viability (LK-2; first compound 0.5 µM) of the same compound?
**A.** 0.205

**Q.** What about the relative viability (LOU-NH91; first compound 0.005 µM) of the same compound?
**A.** 0.753

**Q.** And the relative viability (LOU-NH91; first compound 0.01581 µM)?
**A.** 0.714

**Q.** What about the relative viability (LOU-NH91; first compound 0.05 µM) of the same compound?
**A.** 0.637

**Q.** What about the relative viability (LOU-NH91; first compound 0.1581 µM) of the same compound?
**A.** 0.511

**Q.** What about the relative viability (LOU-NH91; first compound 0.5 µM) of the same compound?
**A.** 0.56

**Q.** What about the relative viability (NCI-H1437; first compound 0.005 µM) of the same compound?
**A.** 0.576

**Q.** And the relative viability (NCI-H1437; first compound 0.01581 µM)?
**A.** 0.817

**Q.** And the relative viability (NCI-H1437; first compound 0.05 µM)?
**A.** 0.472

**Q.** And the relative viability (NCI-H1437; first compound 0.1581 µM)?
**A.** 0.258

**Q.** What about the relative viability (NCI-H1437; first compound 0.5 µM) of the same compound?
**A.** 0.156

**Q.** What about the relative viability (NCI-H1650; first compound 0.005 µM) of the same compound?
**A.** 0.752

**Q.** What about the relative viability (NCI-H1650; first compound 0.01581 µM) of the same compound?
**A.** 1.05

**Q.** What about the relative viability (NCI-H1650; first compound 0.05 µM) of the same compound?
**A.** 0.544

**Q.** And the relative viability (NCI-H1650; first compound 0.1581 µM)?
**A.** 0.315

**Q.** What about the relative viability (NCI-H1650; first compound 0.5 µM) of the same compound?
**A.** 0.188

**Q.** What about the relative viability (NCI-H1666; first compound 0.005 µM) of the same compound?
**A.** 0.794

**Q.** What about the relative viability (NCI-H1666; first compound 0.01581 µM) of the same compound?
**A.** 0.945

**Q.** What about the relative viability (NCI-H1666; first compound 0.05 µM) of the same compound?
**A.** 0.612

**Q.** And the relative viability (NCI-H1666; first compound 0.1581 µM)?
**A.** 0.358

**Q.** What about the relative viability (NCI-H1666; first compound 0.5 µM) of the same compound?
**A.** 0.388

**Q.** And the relative viability (NCI-H2009; first compound 0.005 µM)?
**A.** 1.02

**Q.** And the relative viability (NCI-H2009; first compound 0.01581 µM)?
**A.** 1.01

**Q.** And the relative viability (NCI-H2009; first compound 0.05 µM)?
**A.** 0.955

**Q.** And the relative viability (NCI-H2009; first compound 0.1581 µM)?
**A.** 0.884

**Q.** What about the relative viability (NCI-H2009; first compound 0.5 µM) of the same compound?
**A.** 0.298

**Q.** What about the relative viability (NCI-H2170; first compound 0.01581 µM) of the same compound?
**A.** 0.925

**Q.** What about the relative viability (NCI-H2170; first compound 0.05 µM) of the same compound?
**A.** 0.912

**Q.** And the relative viability (NCI-H2170; first compound 0.1581 µM)?
**A.** 0.605

**Q.** And the relative viability (NCI-H2170; first compound 0.5 µM)?
**A.** 0.483

**Q.** What about the relative viability (NCI-H3122; first compound 0.005 µM) of the same compound?
**A.** 0.264

**Q.** What about the relative viability (NCI-H3122; first compound 0.01581 µM) of the same compound?
**A.** 0.239

**Q.** And the relative viability (NCI-H3122; first compound 0.05 µM)?
**A.** 0.244

**Q.** And the relative viability (NCI-H3122; first compound 0.1581 µM)?
**A.** 0.192

**Q.** What about the relative viability (NCI-H3122; first compound 0.5 µM) of the same compound?
**A.** 0.204

**Q.** And the relative viability (NCI-H441; first compound 0.005 µM)?
**A.** 0.776

**Q.** What about the relative viability (NCI-H441; first compound 0.01581 µM) of the same compound?
**A.** 0.824

**Q.** What about the relative viability (NCI-H441; first compound 0.05 µM) of the same compound?
**A.** 0.598

**Q.** And the relative viability (NCI-H441; first compound 0.1581 µM)?
**A.** 0.199

**Q.** And the relative viability (NCI-H441; first compound 0.5 µM)?
**A.** 0.165

**Q.** And the relative viability (NCI-H460; first compound 0.005 µM)?
**A.** 0.77

**Q.** And the relative viability (NCI-H460; first compound 0.01581 µM)?
**A.** 0.851

**Q.** And the relative viability (NCI-H460; first compound 0.05 µM)?
**A.** 0.144

**Q.** And the relative viability (NCI-H460; first compound 0.1581 µM)?
**A.** 0.0229

**Q.** What about the relative viability (NCI-H460; first compound 0.5 µM) of the same compound?
**A.** 0.0238

**Q.** What about the relative viability (NCI-H661; first compound 0.005 µM) of the same compound?
**A.** 0.963

**Q.** And the relative viability (NCI-H661; first compound 0.01581 µM)?
**A.** 1.15

**Q.** And the relative viability (NCI-H661; first compound 0.1581 µM)?
**A.** 0.975

**Q.** What about the relative viability (NCI-H661; first compound 0.5 µM) of the same compound?
**A.** 0.632

**Q.** And the relative viability (NCI-H727; first compound 0.005 µM)?
**A.** 0.724

**Q.** And the relative viability (NCI-H727; first compound 0.01581 µM)?
**A.** 0.579

**Q.** And the relative viability (NCI-H727; first compound 0.05 µM)?
**A.** 0.636

**Q.** What about the relative viability (NCI-H727; first compound 0.1581 µM) of the same compound?
**A.** 0.359

**Q.** And the relative viability (NCI-H727; first compound 0.5 µM)?
**A.** 0.3

**Q.** And the relative viability (PC-14; first compound 0.005 µM)?
**A.** 0.805

**Q.** And the relative viability (PC-14; first compound 0.01581 µM)?
**A.** 0.84

**Q.** What about the relative viability (PC-14; first compound 0.05 µM) of the same compound?
**A.** 0.778

**Q.** And the relative viability (PC-14; first compound 0.1581 µM)?
**A.** 0.439

**Q.** And the relative viability (PC-14; first compound 0.5 µM)?
**A.** 0.2
